Test results taken from US20250002471A1 (Gilead Sciences, Inc., priority 2020, published 2025).
Where two headings read alike, the source gives them in different places.

What was measured:
TLR9 = biological target: T1, TLR9 (Homo sapiens, UniProt Q9NR96); test: Human PBMC cell-based assay, TLR9 agonist ODN-2216 stimulation, cytokine (IL-6 and IFNα) readout; settings: human PBMCs, ODN-2216 3 μM, 6 hours; Table 26; read-out: TLR-9 EC50
T1 construct: lymphocytes, monocytes and dendritic cells that express TLR7, TLR8 and TLR9; endogenous in cells; host or cells: human PBMCs from healthy donors
T1 sequence (Q9NR96 26-1032): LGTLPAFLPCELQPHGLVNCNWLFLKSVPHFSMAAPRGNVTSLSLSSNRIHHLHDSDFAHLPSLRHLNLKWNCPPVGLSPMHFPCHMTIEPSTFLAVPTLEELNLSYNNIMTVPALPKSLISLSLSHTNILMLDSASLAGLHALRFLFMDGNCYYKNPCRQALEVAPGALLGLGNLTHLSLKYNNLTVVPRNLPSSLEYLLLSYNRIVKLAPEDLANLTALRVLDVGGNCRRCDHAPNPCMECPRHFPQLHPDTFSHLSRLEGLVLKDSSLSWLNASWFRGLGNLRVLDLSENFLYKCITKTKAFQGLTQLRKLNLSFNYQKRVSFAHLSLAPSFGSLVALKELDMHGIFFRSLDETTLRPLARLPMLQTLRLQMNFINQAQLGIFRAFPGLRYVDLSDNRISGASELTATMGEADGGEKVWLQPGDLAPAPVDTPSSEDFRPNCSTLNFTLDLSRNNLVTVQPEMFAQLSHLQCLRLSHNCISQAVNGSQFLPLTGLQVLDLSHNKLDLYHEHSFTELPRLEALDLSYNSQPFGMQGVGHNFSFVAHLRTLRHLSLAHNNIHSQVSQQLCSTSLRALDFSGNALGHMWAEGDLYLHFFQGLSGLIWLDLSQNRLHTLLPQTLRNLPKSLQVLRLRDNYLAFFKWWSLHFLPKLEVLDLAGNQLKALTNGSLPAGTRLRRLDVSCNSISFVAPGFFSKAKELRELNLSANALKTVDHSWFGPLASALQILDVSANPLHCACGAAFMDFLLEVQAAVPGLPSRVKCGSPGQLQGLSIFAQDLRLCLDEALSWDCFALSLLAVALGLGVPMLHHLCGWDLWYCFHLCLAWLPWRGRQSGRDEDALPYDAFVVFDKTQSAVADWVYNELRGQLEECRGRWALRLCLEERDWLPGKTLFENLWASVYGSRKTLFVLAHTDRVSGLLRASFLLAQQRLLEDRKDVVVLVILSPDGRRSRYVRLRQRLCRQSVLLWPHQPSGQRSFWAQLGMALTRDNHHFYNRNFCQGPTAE
In short: (§1)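 Cryopreserved healthy-donor PBMCs (100,000 cells/well, RPMI-1640 + 10% FBS) preincubated 1 h at 37 °C with antagonist (10-point dose response), then stimulated 6 h with GS-986 (400 nM final, TLR7) or ODN-2216 (3 μM final, TLR9). Supernatant IL-6 and IFNα measured by electrochemiluminescence immunoassay; EC50 from sigmoidal fit.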

TLR7 = biological target: T2, TLR7 (Homo sapiens, UniProt Q9NYK1); test: Human PBMC cell-based assay, TLR7 agonist GS-986 stimulation, cytokine (IL-6 and IFNα) readout; settings: human PBMCs, read-out: TLR-7 EC50
T2 construct: lymphocytes, monocytes and dendritic cells that express TLR7, TLR8 and TLR9; endogenous in cells; host or cells: human PBMCs from healthy donors
T2 sequence (Q9NYK1 27-1049): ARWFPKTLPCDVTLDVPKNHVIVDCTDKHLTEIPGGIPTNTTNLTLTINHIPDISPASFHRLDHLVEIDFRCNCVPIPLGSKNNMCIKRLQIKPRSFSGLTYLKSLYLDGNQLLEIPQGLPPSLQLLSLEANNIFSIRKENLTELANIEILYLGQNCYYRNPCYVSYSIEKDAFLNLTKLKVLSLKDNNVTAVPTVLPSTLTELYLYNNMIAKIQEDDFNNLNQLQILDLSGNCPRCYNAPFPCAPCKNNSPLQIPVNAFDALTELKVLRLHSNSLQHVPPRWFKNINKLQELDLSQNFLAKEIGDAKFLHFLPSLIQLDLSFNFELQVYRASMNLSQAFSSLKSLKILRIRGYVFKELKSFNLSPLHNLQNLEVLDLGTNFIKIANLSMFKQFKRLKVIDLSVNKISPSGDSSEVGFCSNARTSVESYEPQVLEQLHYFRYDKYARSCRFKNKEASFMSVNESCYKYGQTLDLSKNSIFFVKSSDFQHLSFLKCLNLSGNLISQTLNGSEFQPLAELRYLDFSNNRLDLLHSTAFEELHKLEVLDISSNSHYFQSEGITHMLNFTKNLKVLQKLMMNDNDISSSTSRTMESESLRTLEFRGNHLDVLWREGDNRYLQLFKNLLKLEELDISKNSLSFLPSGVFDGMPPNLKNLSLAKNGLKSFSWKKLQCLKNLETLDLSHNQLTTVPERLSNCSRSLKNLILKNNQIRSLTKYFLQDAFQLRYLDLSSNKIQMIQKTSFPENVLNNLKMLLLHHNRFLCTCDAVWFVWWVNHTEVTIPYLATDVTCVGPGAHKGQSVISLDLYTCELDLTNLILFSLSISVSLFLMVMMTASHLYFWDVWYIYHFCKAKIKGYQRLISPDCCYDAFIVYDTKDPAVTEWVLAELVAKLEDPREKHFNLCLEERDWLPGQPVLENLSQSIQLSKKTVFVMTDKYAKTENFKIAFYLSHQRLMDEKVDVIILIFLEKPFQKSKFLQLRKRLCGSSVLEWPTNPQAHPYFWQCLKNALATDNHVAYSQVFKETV
In short: as §1

[1] = GS-986 400 nM, 6 hours, Table 26

**Q.** For `Cc1cc(-c2[nH]c3cc(C4CCCNC4)ccc3c2C)cc(C)n1` (stereo not shown) [Example 53], which EC50 (TLR9) is on record?
**A.** Its EC50 is 181 nM.

**Q.** And the EC50 (TLR7; [1])?
**A.** Its EC50 is over 1000 nM.

**Q.** What about the EC50 (TLR7; Table 27 comparison) of the same molecule?
**A.** The EC50 was over 1000 nM.

**Q.** What does the source list for `Cc1c(-c2cc(C)c3ncnn3c2)[nH]c2cc(-c3ccc(N4CCNCC4)nc3)ccc12` [Example 71]?
**A.** EC50 (TLR9): 630 nM; EC50 (TLR7; [1]): 1.2 nM

**Q.** Which results are given for `Cc1cc(-c2[nH]c3cc(C4CCNCC4)ccc3c2C(C)C)cn2ncnc12` [Example 55]?
**A.** EC50 (TLR9): 3980 nM; EC50 (TLR7; [1]): 4.8 nM

**Q.** What does the source list for `Cc1cc(-c2[nH]c3cc(-c4ccc(N5CCNCC5)nc4)ccc3c2C)cc(C)n1` [Example 1, 2-(2,6-dimethylpyridin-4-yl)-3-methyl-6-(6-(piperazin-1-yl)pyridin-3-yl)-1H-indole]?
**A.** EC50 (TLR9): 51.9 nM; EC50 (TLR7; [1]): 18.1 nM

**Q.** Which EC50 (TLR9) does the source give for `Cc1cc(-c2[nH]c3cc(-c4ccc(N5CCNCC5)nc4)ccc3c2C2CC2)cn(C)c1=O` [Example 165] here?
**A.** Its EC50 is 186 nM.

**Q.** What about the EC50 (TLR7; [1]) of the same molecule?
**A.** Its EC50 is 0.33 nM.

**Q.** With `CCc1c(-c2cc(C)c3ncnn3c2)[nH]c2cc(-c3ccc(N4CCNCC4)nc3)ccc12` [Example 167, 6-(3-ethyl-6-(6-(piperazin-1-yl)pyridin-3-yl)-1H-indol-2-yl)-8-methyl-[1,2,4]triazolo[1,5-a]pyridine] as the molecule, how does the EC50 (TLR9) read?
**A.** The EC50 was 393 nM.

**Q.** And the EC50 (TLR7; [1])?
**A.** Its EC50 is 0.17 nM.

**Q.** Which EC50 (TLR9) does the source give for `CCc1c(-c2cc(OC)c3ncnn3c2)[nH]c2cc(-c3ccc(N4CCNCC4)nc3)ccc12` [Example 169] here?
**A.** The EC50 was 502 nM.

**Q.** What about the EC50 (TLR7; [1]) of the same molecule?
**A.** Its EC50 is 0.13 nM.

**Q.** With `Cc1cc(-c2[nH]c3cc(-c4ccc(N5CCN(CCO)CC5)nc4)ccc3c2C)cc(C)n1` [Example 37, 2-(4-(5-(2-(2,6-dimethylpyridin-4-yl)-3-methyl-1H-indol-6-yl)pyridin-2-yl)piperazin-1-yl)ethan-1-ol] as the molecule, how does the EC50 (TLR9) read?
**A.** The EC50 was 37.5 nM.

**Q.** And the EC50 (TLR7; [1])?
**A.** The EC50 was 17.3 nM.

**Q.** Which EC50 (TLR9) does the source give for `Cc1cc(-c2[nH]c3cc(C4CCNCC4)ccc3c2C)cc(C)n1` [Example 48, 2-(2,6-dimethylpyridin-4-yl)-3-methyl-6-(piperidin-4-yl)-1H-indole] here?
**A.** Its EC50 is 136 nM.

**Q.** What about the EC50 (TLR7; [1]) of the same molecule?
**A.** Its EC50 is 692 nM.
